Test results reported in ChEMBL document CHEMBL4265965, “Dichloroacetophenones targeting at pyruvate dehydrogenase kinase 1 with improved selectivity and antiproliferative activity: Synthesis and structure-activity relationships” (Bioorg Med Chem Lett, 2018).
Active and inactive are the calls of the source. The calls are words filed in the database; no cut-off is given here.

Assays:
NCI-H1975 [1] = assay: Antiproliferative activity against human NCI-H1975 cells assessed as inhibition of cell proliferation at 12 uM after 72 hrs by MTT assay relative to control; assay type: functional; details: NCI-H1975, 72 h
NCI-H1975 [2] = assay: Antiproliferative activity against human NCI-H1975 cells assessed as inhibition of cell proliferation at 6 uM after 72 hrs by MTT assay relative to control; assay type: functional; details: NCI-H1975, 72 h
NCI-H1975 [3] = assay: Antiproliferative activity against human NCI-H1975 cells assessed as inhibition of cell proliferation at 2 uM after 72 hrs by MTT assay relative to control; assay type: functional; details: NCI-H1975, 72 h
NCI-H1650 [4] = assay: Antiproliferative activity against human NCI-H1650 cells assessed as inhibition of cell proliferation at 12 uM after 72 hrs by MTT assay relative to control; assay type: functional; details: NCI-H1650, 72 h
NCI-H1650 [5] = assay: Antiproliferative activity against human NCI-H1650 cells assessed as inhibition of cell proliferation at 6 uM after 72 hrs by MTT assay relative to control; assay type: functional; details: NCI-H1650, 72 h
NCI-H1650 [6] = assay: Antiproliferative activity against human NCI-H1650 cells assessed as inhibition of cell proliferation at 2 uM after 72 hrs by MTT assay relative to control; assay type: functional; details: NCI-H1650, 72 h
A549 [7] = assay: Antiproliferative activity against human A549 cells assessed as inhibition of cell proliferation at 12 uM after 72 hrs by MTT assay relative to control; assay type: functional; details: A549, 72 h
A549 [8] = assay: Antiproliferative activity against human A549 cells assessed as inhibition of cell proliferation at 6 uM after 72 hrs by MTT assay relative to control; assay type: functional; details: A549, 72 h
A549 [9] = assay: Antiproliferative activity against human A549 cells assessed as inhibition of cell proliferation at 2 uM after 72 hrs by MTT assay relative to control; assay type: functional; details: A549, 72 h
Sus scrofa [10] = organism: Sus scrofa; assay: Inhibition of porcine PDK1 assessed as activation of pyruvate dehydrogenase complex at 1 uM measured after 3 mins
Sus scrofa [11] = organism: Sus scrofa; assay: Inhibition of porcine PDK1 assessed as activation of pyruvate dehydrogenase complex at 80 uM measured after 3 mins relative to control
NCI-H1975 [12] = assay: Antiproliferative activity against human NCI-H1975 cells assessed as inhibition of cell proliferation after 72 hrs by MTT assay; assay type: functional, cell-based; details: NCI-H1975, 72 h
[13] = biological target: T1, [Pyruvate dehydrogenase (acetyl-transferring)] kinase isozyme 1, mitochondrial (Homo sapiens, UniProt Q15118); assay: Inhibition of recombinant human N-terminal His6/Sumo-tagged PDK1 (29 to 436 residues) expressed in Escherichia coli BL21 at 1 uM by kinase-glo luminescence assay relative to control
[14] = biological target: T1, [Pyruvate dehydrogenase (acetyl-transferring)] kinase isozyme 1, mitochondrial; assay: Inhibition of PDK1 in human NCI-H1975 cells assessed as reduction in pyruvate dehydrogenase phosphorylation at 10 uM after 24 hrs by Western blot analysis; assay type: cell-based
[15] = biological target: Epidermal growth factor receptor (Homo sapiens, UniProt P00533); assay: Inhibition of EGFR phosphorylation in human NCI-H1975 cells at 10 uM after 24 hrs by Western blot analysis; assay type: cell-based; details: nci-h1975, 24 h
[16] = biological target: RAC-alpha serine/threonine-protein kinase (Homo sapiens, UniProt P31749); assay: Inhibition of AKT phosphorylation in human NCI-H1975 cells at 10 uM after 24 hrs by Western blot analysis; assay type: cell-based; details: nci-h1975, 24 h
[17] = Inhibition of ERK phosphorylation in human NCI-H1975 cells at 10 uM after 24 hrs by Western blot analysis; assay type: cell-based; details: nci-h1975, 24 h
[18] = biological target: T1, [Pyruvate dehydrogenase (acetyl-transferring)] kinase isozyme 1, mitochondrial; assay: Inhibition of PDK1 in human NCI-H1975 cells assessed as switch of pyruvate metabolism from lactate production to oxidative phosphorylation by measuring decrease in extracellular acidification rate at 20 uM pretreated for 4 hrs followed by glucose addition for 1 hr measured for 16 mins; assay type: cell-based
[19] = biological target: T1, [Pyruvate dehydrogenase (acetyl-transferring)] kinase isozyme 1, mitochondrial; assay: Inhibition of PDK1 in human NCI-H1975 cells assessed as switch of pyruvate metabolism from lactate production to oxidative phosphorylation by measuring decrease in extracellular acidification rate at 20 uM pretreated for 4 hrs followed by oligomycin addition for 1 hr measured for 16 mins; assay type: cell-based
[20] = biological target: T1, [Pyruvate dehydrogenase (acetyl-transferring)] kinase isozyme 1, mitochondrial; assay: Inhibition of PDK1 in human NCI-H1975 cells assessed as switch of pyruvate metabolism from lactate production to oxidative phosphorylation by measuring decrease in extracellular acidification rate at 20 uM pretreated for 4 hrs followed by 2DG addition for 1 hr measured for 16 mins; assay type: cell-based
[21] = biological target: T1, [Pyruvate dehydrogenase (acetyl-transferring)] kinase isozyme 1, mitochondrial; assay: Inhibition of PDK1 in human NCI-H1975 cells assessed as switch of pyruvate metabolism from lactate production to oxidative phosphorylation by measuring increase in basal oxygen consumption rate at 20 uM incubated for 4 hrs measured for 16 mins; assay type: cell-based
[22] = biological target: T1, [Pyruvate dehydrogenase (acetyl-transferring)] kinase isozyme 1, mitochondrial; assay: Inhibition of PDK1 in human NCI-H1975 cells assessed as switch of pyruvate metabolism from lactate production to oxidative phosphorylation by measuring increase in basal oxygen consumption rate at 20 uM incubated for 4 hrs followed by oligomycin addition for 1 hr measured for 16 mins; assay type: cell-based
[23] = biological target: T1, [Pyruvate dehydrogenase (acetyl-transferring)] kinase isozyme 1, mitochondrial; assay: Inhibition of PDK1 in human NCI-H1975 cells assessed as switch of pyruvate metabolism from lactate production to oxidative phosphorylation by measuring increase in basal oxygen consumption rate at 20 uM incubated for 4 hrs followed by FCCP addition for 1 hr measured for 16 mins; assay type: cell-based
[24] = biological target: T1, [Pyruvate dehydrogenase (acetyl-transferring)] kinase isozyme 1, mitochondrial; assay: Inhibition of PDK1 in human NCI-H1975 cells assessed as switch of pyruvate metabolism from lactate production to oxidative phosphorylation by measuring increase in basal oxygen consumption rate at 20 uM incubated for 4 hrs followed by antimycinA addition for 1 hr measured for 16 mins; assay type: cell-based
[25] = biological target: T1, [Pyruvate dehydrogenase (acetyl-transferring)] kinase isozyme 1, mitochondrial; assay: Binding affinity to recombinant human N-terminal His6/Sumo-tagged PDK1 (29 to 436 residues) expressed in Escherichia coli BL21
[26] = biological target: T1, [Pyruvate dehydrogenase (acetyl-transferring)] kinase isozyme 1, mitochondrial; assay: Inhibition of PDK1 in human NCI-H1975 cells assessed as switch of pyruvate metabolism from lactate production to oxidative phosphorylation by measuring decrease in extracellular acidification rate at 10 uM pretreated for 4 hrs followed by glucose addition for 1 hr measured for 16 mins; assay type: cell-based
[27] = biological target: T1, [Pyruvate dehydrogenase (acetyl-transferring)] kinase isozyme 1, mitochondrial; assay: Inhibition of PDK1 in human NCI-H1975 cells assessed as switch of pyruvate metabolism from lactate production to oxidative phosphorylation by measuring decrease in extracellular acidification rate at 10 uM pretreated for 4 hrs followed by oligomycin addition for 1 hr measured for 16 mins; assay type: cell-based
[28] = biological target: T1, [Pyruvate dehydrogenase (acetyl-transferring)] kinase isozyme 1, mitochondrial; assay: Inhibition of PDK1 in human NCI-H1975 cells assessed as switch of pyruvate metabolism from lactate production to oxidative phosphorylation by measuring decrease in extracellular acidification rate at 10 uM pretreated for 4 hrs followed by 2DG addition for 1 hr measured for 16 mins; assay type: cell-based
[29] = biological target: T1, [Pyruvate dehydrogenase (acetyl-transferring)] kinase isozyme 1, mitochondrial; assay: Inhibition of PDK1 in human NCI-H1975 cells assessed as switch of pyruvate metabolism from lactate production to oxidative phosphorylation by measuring increase in basal oxygen consumption rate at 10 uM incubated for 4 hrs measured for 16 mins; assay type: cell-based
[30] = biological target: T1, [Pyruvate dehydrogenase (acetyl-transferring)] kinase isozyme 1, mitochondrial; assay: Inhibition of PDK1 in human NCI-H1975 cells assessed as switch of pyruvate metabolism from lactate production to oxidative phosphorylation by measuring increase in basal oxygen consumption rate at 10 uM incubated for 4 hrs followed by oligomycin addition for 1 hr measured for 16 mins; assay type: cell-based
[31] = biological target: T1, [Pyruvate dehydrogenase (acetyl-transferring)] kinase isozyme 1, mitochondrial; assay: Inhibition of PDK1 in human NCI-H1975 cells assessed as switch of pyruvate metabolism from lactate production to oxidative phosphorylation by measuring increase in basal oxygen consumption rate at 10 uM incubated for 4 hrs followed by FCCP addition for 1 hr measured for 16 mins; assay type: cell-based
[32] = biological target: T1, [Pyruvate dehydrogenase (acetyl-transferring)] kinase isozyme 1, mitochondrial; assay: Inhibition of PDK1 in human NCI-H1975 cells assessed as switch of pyruvate metabolism from lactate production to oxidative phosphorylation by measuring increase in basal oxygen consumption rate at 10 uM incubated for 4 hrs followed by antimycinA addition for 1 hr measured for 16 mins; assay type: cell-based
[33] = biological target: T1, [Pyruvate dehydrogenase (acetyl-transferring)] kinase isozyme 1, mitochondrial; assay: Inhibition of PDK1 in human NCI-H1975 cells assessed as switch of pyruvate metabolism from lactate production to oxidative phosphorylation by measuring increase in basal oxygen consumption rate at 2.5 to 5 uM incubated for 4 hrs measured for 16 mins; assay type: cell-based
[34] = biological target: T1, [Pyruvate dehydrogenase (acetyl-transferring)] kinase isozyme 1, mitochondrial; assay: Inhibition of PDK1 in human NCI-H1975 cells assessed as switch of pyruvate metabolism from lactate production to oxidative phosphorylation by measuring increase in proton leak at 5 uM incubated for 4 hrs followed by oligomycin addition for 1 hr measured for 16 mins; assay type: cell-based
[35] = biological target: T1, [Pyruvate dehydrogenase (acetyl-transferring)] kinase isozyme 1, mitochondrial; assay: Inhibition of PDK1 in human NCI-H1975 cells assessed as switch of pyruvate metabolism from lactate production to oxidative phosphorylation by measuring increase in ATP production at 5 uM incubated for 4 hrs followed by oligomycin addition for 1 hr measured for 16 mins; assay type: cell-based
[36] = biological target: T1, [Pyruvate dehydrogenase (acetyl-transferring)] kinase isozyme 1, mitochondrial; assay: Inhibition of PDK1 in human NCI-H1975 cells assessed as switch of pyruvate metabolism from lactate production to oxidative phosphorylation by measuring increase in maximum respiration at 5 uM incubated for 4 hrs followed by FCCP addition for 1 hr measured for 16 mins; assay type: cell-based

Sequence of Epidermal growth factor receptor (P00533 whole entry): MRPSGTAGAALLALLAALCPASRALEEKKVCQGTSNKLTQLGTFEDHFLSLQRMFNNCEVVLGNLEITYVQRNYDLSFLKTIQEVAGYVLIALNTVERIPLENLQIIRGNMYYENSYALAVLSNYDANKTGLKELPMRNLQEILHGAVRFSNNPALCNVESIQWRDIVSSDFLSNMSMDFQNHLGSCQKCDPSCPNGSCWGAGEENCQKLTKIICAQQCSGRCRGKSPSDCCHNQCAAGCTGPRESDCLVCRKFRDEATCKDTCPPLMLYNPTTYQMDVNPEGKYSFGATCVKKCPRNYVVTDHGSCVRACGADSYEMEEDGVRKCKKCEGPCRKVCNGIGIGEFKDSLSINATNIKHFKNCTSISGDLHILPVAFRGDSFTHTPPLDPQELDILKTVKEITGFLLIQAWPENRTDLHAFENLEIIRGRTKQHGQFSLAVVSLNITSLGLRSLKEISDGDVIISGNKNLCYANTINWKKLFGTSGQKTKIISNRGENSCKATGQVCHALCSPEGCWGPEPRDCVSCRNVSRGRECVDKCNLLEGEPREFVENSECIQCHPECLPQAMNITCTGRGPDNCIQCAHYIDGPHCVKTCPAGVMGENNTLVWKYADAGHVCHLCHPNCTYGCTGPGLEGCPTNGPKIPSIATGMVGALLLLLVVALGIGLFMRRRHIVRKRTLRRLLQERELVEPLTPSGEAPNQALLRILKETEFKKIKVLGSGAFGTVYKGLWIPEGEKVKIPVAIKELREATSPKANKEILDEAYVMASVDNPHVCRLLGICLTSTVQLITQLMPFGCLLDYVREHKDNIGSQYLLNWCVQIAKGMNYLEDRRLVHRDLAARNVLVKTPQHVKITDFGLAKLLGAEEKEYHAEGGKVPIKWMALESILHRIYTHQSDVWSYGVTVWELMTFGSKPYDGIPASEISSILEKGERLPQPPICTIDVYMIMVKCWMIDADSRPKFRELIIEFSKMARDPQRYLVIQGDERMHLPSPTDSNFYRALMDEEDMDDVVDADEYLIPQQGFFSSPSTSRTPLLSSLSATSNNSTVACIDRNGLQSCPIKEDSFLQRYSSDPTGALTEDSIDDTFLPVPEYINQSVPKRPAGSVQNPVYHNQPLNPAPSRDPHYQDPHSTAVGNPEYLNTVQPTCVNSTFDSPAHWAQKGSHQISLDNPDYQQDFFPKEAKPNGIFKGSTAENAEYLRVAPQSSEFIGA
Sequence of RAC-alpha serine/threonine-protein kinase (P31749 whole entry): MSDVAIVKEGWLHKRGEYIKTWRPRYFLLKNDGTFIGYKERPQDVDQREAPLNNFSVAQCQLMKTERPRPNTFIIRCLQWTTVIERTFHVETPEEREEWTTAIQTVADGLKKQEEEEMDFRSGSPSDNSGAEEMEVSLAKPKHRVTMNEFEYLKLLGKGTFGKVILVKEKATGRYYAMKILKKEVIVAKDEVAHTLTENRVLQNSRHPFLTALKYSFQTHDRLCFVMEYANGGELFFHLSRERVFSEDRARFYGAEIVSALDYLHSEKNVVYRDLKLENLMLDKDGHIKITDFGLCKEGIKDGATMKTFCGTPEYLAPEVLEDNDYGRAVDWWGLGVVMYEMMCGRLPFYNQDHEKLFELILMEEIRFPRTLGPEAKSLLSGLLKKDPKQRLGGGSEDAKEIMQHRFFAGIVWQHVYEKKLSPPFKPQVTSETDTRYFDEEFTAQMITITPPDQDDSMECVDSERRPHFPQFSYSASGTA
T1 sequence (Q15118 whole entry, the tested form may be a part): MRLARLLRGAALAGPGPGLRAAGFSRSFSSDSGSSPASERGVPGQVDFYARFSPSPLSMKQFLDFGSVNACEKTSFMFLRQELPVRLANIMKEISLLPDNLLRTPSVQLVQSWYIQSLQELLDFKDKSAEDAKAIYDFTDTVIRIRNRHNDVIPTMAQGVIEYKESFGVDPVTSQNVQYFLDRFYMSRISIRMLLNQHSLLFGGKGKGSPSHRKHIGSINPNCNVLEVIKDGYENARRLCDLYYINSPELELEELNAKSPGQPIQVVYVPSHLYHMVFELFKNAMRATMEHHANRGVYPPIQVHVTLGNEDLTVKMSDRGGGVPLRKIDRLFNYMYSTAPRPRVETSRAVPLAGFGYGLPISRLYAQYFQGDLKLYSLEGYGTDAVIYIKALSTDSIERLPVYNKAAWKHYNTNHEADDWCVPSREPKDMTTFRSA

Row | Structure (SMILES) | inhibition at 12 µM (NCI-H1975 [1]) | inhibition at 6 µM (NCI-H1975 [2]) | inhibition at 2 µM (NCI-H1975 [3]) | inhibition at 12 µM (NCI-H1650 [4]) | inhibition at 6 µM (NCI-H1650 [5]) | inhibition at 2 µM (NCI-H1650 [6]) | inhibition at 12 µM (A549 [7]) | inhibition at 6 µM (A549 [8]) | inhibition at 2 µM (A549 [9]) | inhibition (Sus scrofa [10]) | IC50 (NCI-H1975 [12]) | inhibition [13] | inhibition (INH) [15] | inhibition (INH) [16] | inhibition (INH) [17] | also measured
1 | O=C(c1ccccc1)C(Cl)Cl | 83.7% | 54.3% | 13.2% | 47.9% | 31.3% | 15.3% | 54.4% | 28.5% | 9.2% | inactive | 7900 nM | inactive | Active | Active | Active | inhibition (Sus scrofa [11]): 36.6%; inhibition [14]: Active; inhibition [18]: inactive; inhibition [19]: inactive; inhibition [20]: Active; inhibition [21]: Active; inhibition [22]: Active; inhibition [23]: Active; inhibition [24]: inactive
2 | CC(C)Oc1ccc(C(=O)C(Cl)Cl)cc1[N+](=O)[O-] | 99.5% | 99.1% | 65.5% | 99.5% | 95.9% | 48.6% | 99.7% | 92.5% | 27.7% | Active | 1260 nM | 84.3% | Not Active | Not Active | Not Active | Kd [25]: 580 nM; inhibition [26]: Active; inhibition [27]: Active; inhibition [28]: Active; inhibition [29]: Active; inhibition [30]: Active; inhibition [31]: Active; inhibition [32]: inactive; inhibition [33]: Active; inhibition [34]: Active; inhibition [35]: Active; inhibition [36]: Active
